# Patent publication US20260123654A1, “METHOD FOR IMPROVING THE BIOAVAILABILITY OF FUNCTIONAL FOOD PRODUCTS” (priority 2022, published 2026)
# Columns and labels:
# [1] = Triacylglycerols (TAG) content in rat serum after bolus intragastric administration of olive oil; format: in vivo, Wistar rats; details: 1, 2, and 3 hours after bolus intragastric administration of olive oil; xenon 280 vol. %, krypton 24 vol. %
# Method: Studies on the effect of xenon on the absorption and transport of triacylglycerols were carried out in an experiment as described [Wang Z., Wang L., Zhang Z., Feng L., Song X., & Wu J. Apolipoprotein A-IV involves in glucose and lipid metabolism of rat//Nutrition & metabolism.-2019.-T. 16.- ? 1.-P. 1-9.], were performed on 12 Wistar rats weighing 320-360 g.
# All animals were divided into 3 groups: 1-control, 2-experimental, 3-experimental. The animals were fasted for 6 hours before the experiment, and then rats of the control group (n=4) were injected intragastrically with bolus Extra Virgin olive oil (Aceites Toledo, Spain) at a dose of 1 ml/100 g body weight. […]
# An introduction of gases into the oils was carried out using an emulsion production reactor with a volume of 11. […] A content of xenon and krypton in the oil was determined by a gas chromatography method. […]
# Triacylglycerols (TAG) content was immediately determined in blood serum using enzyme kits from Chronolab (Spain). For this purpose, 10 μl of serum or standard TAG solution was added to 1 ml of a working reagent, incubated for 5 min at […] in a thermostat and an optical density at 500 nm was determined on a spectrophotometer.
# [2] = Omega-3 index in male volunteers after intake of capsules; format: in vivo; details: xenon 5-250 vol. %, krypton 5-70 vol. % in Epax 5025 TGN
# Method: Testing was carried out on 14 male volunteers, age from 38 to 47 years. Control and 5 experimental groups of 2 people each. […] For testing the control group, the product used was Epax Ultra Concentrates (Epax 5025 TGN), manufactured by Epax Norway AS. For experimental group 1 xenon was introduced into the product in concentration of 5 vol. %; for experimental group 2-20 vol. %; for experimental group 3-250 vol. %; for experimental group 4-krypton-5 vol. %; for experimental group 5-24 vol. %; for experimental group 6-70 vol. %. A product saturation with gases was done as described above, but at a small overpressure: krypton at 2.0 mPa, and xenon—0.2 mPa. All products (for control and experimental groups) were encapsulated in soft gelatin capsules weighing 0.5 g. All volunteers took 4 capsules per day, 2 in the morning and 2 in the evening, on an empty stomach. Omega-3 index tests were again taken after 1 month.
# [3] = when injected into the body; cited from earlier work
TAG levels versus control [1],effect on Omega-3 index [2],SMILES,time to complete elimination of the gas from the body [3] [h]
significant increase,dose-dependent increase,[Kr] [krypton],
significant increase,dose-dependent increase,[Xe] [xenon],≤ 4
